Data: PMC11123961, “Design, Synthesis, and Biological Evaluation of the Quorum-Sensing Inhibitors of Pseudomonas aeruginosa PAO1” (Molecules, 2024)
Like-named read-outs stand apart in the source and are kept apart here.

Legend:
C. violaceum CV026 QS [1] = test: Half-maximal inhibitory concentration against C. violaceum CV026 QS (suppression of violacein production); format: cell-based; conditions: qualitative preliminary screening
C. violaceum CV026 QS [2] = test: as above; format: cell-based; conditions: Chromobacterium violaceum; C6-HSL-induced violacein production, 12 h; mean ± SD of three independent tests; read-out: IC50, anti-CV026 QS activity
Excerpt: In the exploration of the QS inhibitions, C. violaceum CV026, a mini-T5 mutant of C. violaceum ATCC31532, is frequently employed as a biosensor strain. Because C. violaceum CV026 lacks the CviI gene, which directs the synthesis of AHLs, it is unable to manufacture violacein on its own. The violacein reaction can be induced in C. violaceum CV026 by adding exogenous C6-HSL [27]. As a result, the violacein reaction in C. violaceum CV026 can be used to assess the compounds’ suppression of QS, as used in this investigation.
3.2.2. The Half-Maximal Inhibitory Concentration (IC50) of Compounds against C. violaceum CV026 QS [36]
Subsequently, the log phase of C. violaceum CV026 was placed in a 12-well plate (2 mL/well) after being diluted 10-fold with fresh LB medium. The experimental group received 15 μL of the diluted inducer C6-HSL (0.125 mM), and 8 μL of each dilution gradient compound was added to each well, while the positive control group received 8 μL of C10-HSL, and the blank control group received 8 μL of LB medium. The plates were incubated at 30 °C and 130 rpm for 12 h. After centrifuging 1 mL of the culture for 10 min at 11,255 g, the supernatant was discarded. After dissolving the violacein with 500 μL of DMSO, the mixture was centrifuged once more at 11,255 g for 10 min. In order to measure the absorbance at 585 nm, 200 μL of the upper pigment was added to a 96-well plate. The IC50 was calculated using GraphPad Prism 5 according to the formula (absorbance at 585 nm of the test concentration/the absorbance of the control at 585 nm × 100%).

[3] = system: P. aeruginosa PAO1 biofilms; test: Biofilm quantification, crystal violet assay; format: cell-based, Pseudomonas aeruginosa; conditions: for inhibition at 20.3125 µM / inhibition at 40.625 µM / inhibition at 81.25 µM / inhibition at 162.5 µM / inhibition at 325 µM: Pseudomonas aeruginosa, PAO1, 20 h, read-out: Inhibition ratio of biofilm; for inhibition at 20.3125 µM: concentration 20.3125 (unit not given in Table S1; μM in method); for inhibition at 40.625 µM: concentration 40.625 (unit not given in Table S1; μM in method); for inhibition at 81.25 µM: concentration 81.25 (unit not given in Table S1; μM in method); for inhibition at 162.5 µM: concentration 162.5 (unit not given in Table S1; μM in method); for inhibition at 325 µM: concentration 325 (unit not given in Table S1; μM in method)
Protocol: 3.2.3. Biofilm Quantification Assays
The crystal violet assay was used to quantitatively analyze the biofilm, as previously described. P. aeruginosa PAO1 log phase was diluted 100 times with fresh LB medium and incubated for 3.5 h at 37 °C and 150 rpm. After that, the P. aeruginosa PAO1 bacterial culture was added to the 96-well plate. P. aeruginosa PAO1 bacterial culture in 90 μL was added to the experimental group, and 10 μL of the test compound at a final concentration of 325 μM, 162.5 μM, 81.25 μM, 40 μM, 20 μM, and 10 μM. Each well received 100 μL of bacterial culture for the control group and 100 μL of fresh LB medium for the blank group. After 20 h of incubation at 37 °C, the bacterial culture was removed from the 96-well plate, and it was dried after three PBS washes. Each well received […] of 0.1% crystal violet (CV) for a 15 min staining period. Each well was washed three times with PBS after the CV was removed. Lastly, each well received 150 μL of 33% glacial acetic acid, and a Biotek multi-function microplate reader was used to measure the absorbance value at 595 nm. The biofilm inhibition rate was calculated as follows = (OD595 blank − OD595 sample)/OD595 blank × 100%.

C. violaceum CV026 QS [4] = system: C. violaceum CV026 QS; set-up: method as in earlier work; conditions: lead compound, value of Zhao; cited from earlier work
[5] = system: wildtype Caenorhabditis elegans N2 infected with P. aeruginosa PAO1; test: C. elegans survival assay; format: in vivo; conditions: after 48 h; agent alone: Y-31 162.5 μM, Tob 0.25 μg/mL
Excerpt: 3.2.7. C. elegans Survival Assay
The negative control was the PGS agar plate coated with E. Coli OP50. Next, 50 wildtype C. elegans N2 strain-synchronized nematodes (L4 stage) were chosen and placed onto the plates. […] When the nematodes in the study were immobile, they were deemed dead. The number of nematodes that survived was tabulated to generate a survival curve.

Structure (SMILES) | C. violaceum CV026 QS inhibitory activity (first assessment) (C. violaceum CV026 QS [1]) | IC50 (C. violaceum CV026 QS [2]) [µM] | inhibition at 20.3125 µM [3] [%] | inhibition at 40.625 µM [3] [%] | inhibition at 81.25 µM [3] [%] | inhibition at 162.5 µM [3] [%] | inhibition at 325 µM [3] [%] | further results
O=C(CCCOc1ccc2ccncc2c1)NN1CCOC1=O [Y-1] | inhibited | 199 ± 13.9 |  |  |  |  |  | 
COc1ccc(OCCCC(=O)NN2CCOC2=O)cc1 [Y-3] | inhibited | 208 ± 7.26 |  |  |  |  |  | 
O=C(CCCOc1ccc2ccccc2c1)NN1CCOC1=O [Y-29] | inhibited | 26.1 ± 2.52 | 9.51 | 32.7 | 34.7 | 40.9 | 9.07 | 
O=C(CCCOc1cccc2ccccc12)NN1CCOC1=O [Y-37] |  | 102 ± 4.36 | 15.3 | 35.1 | 36.4 | 28.7 | 18.2 | 
O=C(CCCOc1cnc(Br)cn1)NN1CCOC1=O [Y-15] | inhibited | 91.3 ± 3.02 | 6.73 | 27 | 36.8 | 33.9 | 32.1 | 
CCCCc1ccc(OCCCC(=O)NN2CCOC2=O)cc1 [Y-17] |  | > 260 |  |  |  |  |  | 
O=C(CCCOc1ccc(Br)cc1)NN1CCCOC1=O [Y-6] |  | > 260 |  |  |  |  |  | 
O=C(CCCOc1ccc(-c2ccccc2)cc1)NN1CCOC1=O [Y-5] |  | 125 ± 16.1 |  |  |  |  |  | 
CCCCCCCCCC(=O)N[C@H]1CCOC1=O [C10-HSL, reference compound] |  | 0.15 ± 0.024 | -4.35 | 2.25 | 0.25 | 6.3 | -18.8 | Effect on the biofilm of P. aeruginosa PAO1 ([3]; crystal violet assay): no significant inhibitory effect
O=C(CCCOc1ccc(C(F)(F)F)cc1)NN1CCOC1=O [Y-25] | inhibited | 62.6 ± 3.27 | 18.8 | 32.2 | 33.4 | 39.9 | 32.2 | 
CCc1ccc(OCCCC(=O)NN2CCOC2=O)cc1 [Y-19] |  | 153 ± 8.78 |  |  |  |  |  | 
CC(C)c1ccc(OCCCC(=O)NN2CCOC2=O)cc1 [Y-38] |  | > 260 |  |  |  |  |  | 
O=C(CCCCOc1ccc(Br)cc1)NN1CCCOC1=O [Y-4] |  | > 260 |  |  |  |  |  | 
O=C(CCCSc1ccc(Br)cc1)NN1CCOC1=O [Y-39] |  | 47.4 ± 1.74 | 12.9 | 23.4 | 28.4 | 24.9 | 21.2 | 
O=C(CCCOc1ccc(Br)nc1)NN1CCOC1=O [Y-9] | inhibited | 168 ± 7.28 |  |  |  |  |  | 
O=C(CCCOc1ccc(I)cc1)NN1CCOC1=O [Y-26] | inhibited | 27.6 ± 1.25 | 2.17 | 33.5 | 42.5 | 44.6 | 38.7 | 
O=C(NN1CCOC1=O)c1ccccc1 [AOZ-1] |  |  |  |  |  |  |  | IC50 (C. violaceum CV026 QS [4]): > 200 µM
CC(C)(C)Oc1ccc(OCCCC(=O)NN2CCOC2=O)cc1 [Y-18] |  | > 260 |  |  |  |  |  | 
O=C(CCCOc1ccccc1)NN1CCOC1=O [Y-28] | inhibited | 232 ± 5.84 |  |  |  |  |  | 
Cc1ccc(OCCCC(=O)NN2CCOC2=O)c(C)c1 [Y-40] |  | 180.5 ± 1.77 |  |  |  |  |  | 
NC[C@H]1O[C@H](O[C@H]2[C@H](O)[C@@H](O[C@H]3O[C@H](CO)[C@@H](O)[C@H](N)[C@H]3O)[C@H](N)C[C@@H]2N)[C@H](N)C[C@@H]1O [Tob, Tobramycin, reference compound] |  |  |  |  |  |  |  | Improvement of the survival rate of infected nematodes (average) [5]: 63.33%
